These results are taken from ChEMBL document CHEMBL4819064, “Discovery of new pyrimidopyrrolizine/indolizine-based derivatives as P-glycoprotein inhibitors: Design, synthesis, cytotoxicity, and MDR reversal activities” (Eur J Med Chem, 2021).

The nature of data set [1]: Selectivity index, ratio of IC50 for human MRC5 cells to IC50 for human A2780 cells. In kind it is toxicity. Particulars: MRC5 cells versus A2780 cells, read-out: Ratio IC50.
A further data set relates to A2780. The experiment in a line: Cytotoxicity against human A2780 cells assessed as reduction in cell viability incubated for 72 hrs by MTT assay. Particulars: A2780, 72 h.
For another data set, the system named is MCF7. The data set can be described thus: Cytotoxicity against human MCF7 cells assessed as reduction in cell viability incubated for 72 hrs by MTT assay. In kind it is functional, cell-based. Particulars: MCF7, 72 h.
Another data set relates to MRC5. The data set can be described thus: Cytotoxicity against human MRC5 cells assessed as reduction in cell viability incubated for 72 hrs by MTT assay. Particulars: MRC5, 72 h.
The subject of the next data set is HT-29. The data set can be described thus: Cytotoxicity against human HT29 cells assessed as reduction in cell viability incubated for 72 hrs by MTT assay. The conditions noted are these: HT-29, 72 h.
Data set [2] can be described thus: Selectivity index, ratio of IC50 for human MRC5 cells to IC50 for human MCF7 cells. In kind it is toxicity. The conditions noted are these: MRC5 cells versus MCF7 cells, read-out: Ratio IC50.
The nature of data set [3]: Selectivity index, ratio of IC50 for human MRC5 cells to IC50 for human HT29 cells. In kind it is toxicity. The conditions noted are these: MRC5 cells versus HT29 cells, read-out: Ratio IC50.
In data set [4] the test system is NCI/ADR-RES. The experiment in a line: Synergistic cytotoxicity against human MCF7/ADR cells assessed as combination index at 0.5 uM after 72 hrs in presence of 1 uM doxorubicin by MTT assay. In kind it is functional.
Data set [5] in a line: Reversal of multidrug resistant activity in human MCF7/ADR cells assessed as reversal fold after 72 hrs by MTT assay. In kind it is functional, NCI/ADR-RES.
Data set [6] deals with NCI/ADR-RES. The experiment in a line: Synergistic cytotoxicity against human MCF7/ADR cells assessed as combination index at 0.5 uM after 72 hrs in presence of 0.5 uM doxorubicin by MTT assay. In kind it is functional.
The test system of data set [7] is NCI/ADR-RES. The experiment in a line: Synergistic cytotoxicity against human MCF7/ADR cells assessed as combination index at 0.25 uM after 72 hrs in presence of 0.25 uM doxorubicin by MTT assay. In kind it is functional.
For data set [8], the system named is NCI/ADR-RES. The experiment in a line: Synergistic cytotoxicity against human MCF7/ADR cells assessed as combination index at 1 uM after 72 hrs in presence of 0.25 uM doxorubicin by MTT assay. In kind it is functional.
Data set [9] concerns NCI/ADR-RES. The data set can be described thus: Synergistic cytotoxicity against human MCF7/ADR cells assessed as combination index at 1 uM after 72 hrs in presence of 0.5 uM doxorubicin by MTT assay. In kind it is functional.
Data set [10] deals with NCI/ADR-RES. The experiment in a line: Synergistic cytotoxicity against human MCF7/ADR cells assessed as combination index at 0.5 uM after 72 hrs in presence of 0.25 uM doxorubicin by MTT assay. In kind it is functional.
In data set [11] the test system is NCI/ADR-RES. The data set can be described thus: Synergistic cytotoxicity against human MCF7/ADR cells assessed as combination index at 1 uM after 72 hrs in presence of 1 uM doxorubicin by MTT assay. In kind it is functional.
In data set [12] the test system is NCI/ADR-RES. The data set can be described thus: Synergistic cytotoxicity against human MCF7/ADR cells assessed as combination index at 0.25 uM after 72 hrs in presence of 1 uM doxorubicin by MTT assay. In kind it is functional.
The subject of data set [13] is NCI/ADR-RES. The experiment in a line: Cytotoxicity against human MCF7/ADR cells assessed as reduction in cell viability incubated for 72 hrs by MTT assay.
In data set [14] the test system is NCI/ADR-RES. The data set can be described thus: Cytotoxicity against human MCF7/ADR cells assessed as reduction in cell viability incubated for 72 hrs in presence of doxorubicin by MTT assay. In kind it is functional, cell-based.
Data set [15] concerns NCI/ADR-RES. The data set can be described thus: Synergistic cytotoxicity against human MCF7/ADR cells assessed as combination index at 0.25 uM after 72 hrs in presence of 0.5 uM doxorubicin by MTT assay. In kind it is functional.

For the molecule `N#Cc1c2c(n3c1CCC3)C(=O)N(c1ccc(F)cc1)CC(=O)N2`, the selectivity ratio in [1] was 1.51; in data set [2] it was 7.68; in data set [3], 0.15. Moreover, the IC50 in the data set on A2780 was 970 nM; in the data set on MCF7, 190 nM; with MRC5, 1460 nM; in the data set on HT-29 it was 9710 nM.

As for `N#Cc1c2n(c3c(=O)n(-c4ccc(Cl)cc4)cnc13)CCCC2`, the CI in the data set with NCI/ADR-RES [4] is on record as 0.9; with NCI/ADR-RES [6], >100; in the data set on NCI/ADR-RES [7], >100; in the data set with NCI/ADR-RES [8], >100; with NCI/ADR-RES [9] it was >100; in the data set with NCI/ADR-RES [10] it was >100. Further, the CI in the data set with NCI/ADR-RES [11] is recorded as 0.21; in the data set on NCI/ADR-RES [12], 0.19; in the data set on NCI/ADR-RES [15], >100. Also, the “fold change (FC)” value in data set [5] was determined as 2.88. Further, the results for the selectivity ratio in [1], in [2] and in data set [3] were 4.29, 1.2 and 0.71, respectively. Further, the IC50 in the data set on A2780 is 70 nM; with MCF7 it was 250 nM; with MRC5, 300 nM; in the data set on HT-29 it was 420 nM; in the data set with NCI/ADR-RES [13], 37300 nM; in the data set on NCI/ADR-RES [14], 6330 nM.

In the case of `COc1ccc(-n2c(=O)[nH]c3c(C#N)c4n(c3c2=O)CCC4)cc1`, the selectivity ratio stood at 0.88 in data set [1], 0.71 in data set [2] and 33 in data set [3]. Also, the half-maximal inhibitory concentration (IC50) with A2780 stood at 15600 nM; in the data set on MCF7 it was 19600 nM; in the data set with MRC5, 13800 nM; with HT-29, 420 nM.

With `O=C(Nc1ccc(F)cc1)c1c2nc[nH]c(=O)c2c2n1CCC2`, the selectivity ratio in [1] is 0.29; in data set [2], 0.23; in [3], 0.17. For the same molecule, the IC50 in the data set on A2780 came to 580 nM; in the data set on MCF7, 740 nM; with MRC5 it was 170 nM; in the data set on HT-29, 1020 nM.

On to `Cc1nc2c(C#N)c3n(c2c(=O)n1-c1ccc(Cl)cc1)CCCC3`, for which the selectivity ratio in [1] stood at 2.44; in data set [2], 0.14; in data set [3], 0.15. The IC50 in the data set on A2780 turned out to be 630 nM; with MCF7 it was 10800 nM; with MRC5, 1540 nM; with HT-29 it was 10500 nM.

On to `Cc1nc2c(C#N)c3n(c2c(=O)n1-c1ccc(F)cc1)CCC3`, for which the CI with NCI/ADR-RES [4] is given as 0.2; in the data set on NCI/ADR-RES [6] it was >100; in the data set with NCI/ADR-RES [7] it was >100; in the data set on NCI/ADR-RES [8], >100; with NCI/ADR-RES [9] it was 9.602; with NCI/ADR-RES [10], >100. For the same molecule, the CI with NCI/ADR-RES [11] is reported as 0.1; in the data set on NCI/ADR-RES [12] it was 0.89; with NCI/ADR-RES [15], >100. For the same molecule, the “fold change (FC)” value in [5] worked out at 2.98. Besides, the selectivity ratio is 18.5 in data set [1], 16.4 in data set [2] and 3.56 in data set [3]. Also, the IC50 was found to be 150 nM in the data set on A2780; 170 nM in the data set on MCF7; 2780 nM in the data set with MRC5; 780 nM in the data set on HT-29; 46900 nM in the data set with NCI/ADR-RES [13]; 6120 nM in the data set with NCI/ADR-RES [14].

For the molecule `COc1ccc(N2CC(=O)Nc3c(C#N)c4n(c3C2=O)CCC4)cc1`, the values for the selectivity ratio in [1], in [2] and in data set [3] were 1.52, 3.38 and 47.9, respectively. The IC50 turned out to be 6280 nM with A2780, 2830 nM in the data set with MCF7, 9570 nM in the data set with MRC5 and 200 nM in the data set with HT-29.

`COc1ccc(NC(=O)c2c3nc[nH]c(=O)c3c3n2CCC3)cc1`: the selectivity ratio came out at 0.1 in data set [1], 1.07 in data set [2] and 10.9 in [3]. Besides, the IC50 with A2780 amounted to 15600 nM; in the data set with MCF7 it was 1430 nM; with MRC5 it was 1530 nM; with HT-29 it was 140 nM.

As for `Cc1nc2c(C#N)c3n(c2c(=O)n1-c1ccccc1)CCCC3`, the selectivity ratio in [1] came to 152; in data set [2], 4.23; in [3] it was 8.61. In addition, the IC50 with A2780 came to 50 nM; in the data set with MCF7, 1790 nM; in the data set on MRC5, 7580 nM; in the data set with HT-29 it was 880 nM.

Regarding `COc1ccc(-n2c(C)nc3c(C#N)c4n(c3c2=O)CCC4)cc1`, the CI is given as 0.2 in the data set with NCI/ADR-RES [4]; 2.952 in the data set on NCI/ADR-RES [6]; >100 in the data set on NCI/ADR-RES [7]; >100 in the data set with NCI/ADR-RES [8]; 5.646 in the data set on NCI/ADR-RES [9]; 37.214 with NCI/ADR-RES [10]. Moreover, the results for the CI with NCI/ADR-RES [11], with NCI/ADR-RES [12] and in the data set on NCI/ADR-RES [15] were 0.3, 0.19 and 11.363, respectively. The “fold change (FC)” value in data set [5] is on record as 2.4. Further, the selectivity ratio amounted to 247 in data set [1], 216 in data set [2] and 108 in data set [3]. Besides, the concentration for half-maximal inhibition (IC50) with A2780 amounted to 70 nM; with MCF7, 80 nM; with MRC5 it was 17300 nM; in the data set on HT-29, 160 nM; in the data set with NCI/ADR-RES [13] it was 30500 nM; with NCI/ADR-RES [14], 7580 nM.

Consider `N#Cc1c2n(c3c(=O)n(-c4ccc(F)cc4)c(=O)[nH]c13)CCC2`, for which the values for the selectivity ratio in [1], in data set [2] and in [3] were 0.33, 0.27 and 0.05, respectively. Also, the IC50 in the data set on A2780 turned out to be 730 nM; with MCF7, 880 nM; in the data set on MRC5, 240 nM; with HT-29, 4380 nM.

Consider `Cc1nc2c(C#N)c3n(c2c(=O)n1-c1ccc(Br)cc1)CCCC3`, for which the selectivity ratio turned out to be 23.2 in data set [1], 2.25 in [2] and 0.35 in data set [3]. Moreover, the IC50 is 160 nM in the data set with A2780, 1650 nM with MCF7, 3710 nM in the data set with MRC5 and 10800 nM in the data set with HT-29.

On to `COc1ccc(-n2cnc3c(C#N)c4n(c3c2=O)CCC4)cc1`, for which the selectivity ratio came out at 15.1 in data set [1], 7.88 in data set [2] and 1.88 in data set [3]. For the same molecule, the IC50 with A2780 amounted to 1360 nM; with MCF7 it was 2610 nM; in the data set with MRC5 it was 20600 nM; with HT-29, 11000 nM.
